In the experiment the test system is CD2F1 mice, ip Colon 26 adenocarcinoma, median survival T/C. The experiment is described as follows: NCI In Vivo Anticancer Drug Screen. Data for tumor model Colon 26 Adenocarcinoma (intraperitoneal) in CD2F1 (CDF1) mice. Conditions: endpoint: median survival time, higher = longer survival. The protocol:
The antitumor activity of compounds was measured in mice bearing transplantable tumors. Survival or tumor size were measured and the results are expressed as the measurement made in the treated group (T) divided by the measurement made in the vehicle treated control group (C). The tumor model used in this assay is Colon 26 Adenocarcinoma (intraperitoneal) in CD2F1 (CDF1) mice

[1] abbreviates: dose: 12.5 mg/kg/injection, schedule: Q04DX002 (ip), vehicle: distilled water + Tween-80.
Setting [2] is: dose: 50.0 mg/kg/injection, schedule: Q04DX002 (ip), vehicle: distilled water + Tween-80.
Where [3] appears, read: dose: 100.0 mg/kg/injection, schedule: Q04DX002 (ip), vehicle: distilled water + Tween-80.
Where [4] appears, read: dose: 200.0 mg/kg/injection, schedule: Q04DX002 (ip), vehicle: distilled water + Tween-80.
[5] abbreviates: dose: 8.0 mg/kg/injection, schedule: Q04DX003 (ip), vehicle: saline.
[6] abbreviates: dose: 25.0 mg/kg/injection, schedule: Q04DX003 (ip), vehicle: saline.
Where [7] appears, read: dose: 4.0 mg/kg/injection, schedule: Q01DX009 (ip), vehicle: acid diluted with saline.
Where [8] appears, read: dose: 8.0 mg/kg/injection, schedule: Q01DX009 (ip), vehicle: acid diluted with saline.
Where [9] appears, read: dose: 16.0 mg/kg/injection, schedule: Q01DX009 (ip), vehicle: acid diluted with saline.

Values joined by “and” are separate entries in the source; they are usually repeats but may differ in a detail not shown here. Identical values can stand only once. Inconclusive results and toxic doses are left out.

On to `CC1(CO)C(O)CCC2(C)C1C(O)CC1CC3CC12CCC3(O)CO` (stereo not drawn), for which the T/C reads like this: under setting [1], 120 % of control; under setting [2], 98 % of control; under setting [3], 110 % of control; under setting [4], 103 % of control.
Turning to `Nc1ccc2nc3ccc(N)cc3[n+](-c3ccccc3)c2c1`, the T/C by setting is: (dose: 4.0 mg/kg/injection, schedule: Q04DX003 (ip), vehicle: saline) 121 % of control; under setting [5], 120 % of control; (dose: 16.0 mg/kg/injection, schedule: Q04DX003 (ip), vehicle: saline) 120 % of control.
Turning to `Clc1ccc(C(c2ccccc2Cl)C(Cl)Cl)cc1` (stereo not drawn), the T/C was 110 % of control (dose: 25.0 mg/kg/injection, schedule: Q04DX003 (ip), vehicle: saline with Tween-80); 98 % of control (dose: 50.0 mg/kg/injection, schedule: Q04DX003 (ip), vehicle: saline with Tween-80); 96 % of control (dose: 100.0 mg/kg/injection, schedule: Q04DX003 (ip), vehicle: saline with Tween-80); 104 % of control (dose: 200.0 mg/kg/injection, schedule: Q04DX003 (ip), vehicle: saline with Tween-80); 96 % of control (dose: 400.0 mg/kg/injection, schedule: Q04DX003 (ip), vehicle: saline with Tween-80).
In the case of `CCc1c(CC(=O)O)c2cc(C)ccc2n1Cc1ccc(Cl)cc1`, the T/C (dose: 6.25 mg/kg/injection, schedule: Q04DX003 (ip), vehicle: Klucel (hydroxypropylcellulose) (HPC)) was 89 % of control; the T/C (dose: 12.5 mg/kg/injection, schedule: Q04DX003 (ip), vehicle: Klucel (hydroxypropylcellulose) (HPC)) was 95 % of control; the T/C (dose: 25.0 mg/kg/injection, schedule: Q04DX003 (ip), vehicle: Klucel (hydroxypropylcellulose) (HPC)) was 97 % of control; the T/C (dose: 50.0 mg/kg/injection, schedule: Q04DX003 (ip), vehicle: Klucel (hydroxypropylcellulose) (HPC)) was 100 % of control; the T/C (dose: 100.0 mg/kg/injection, schedule: Q04DX003 (ip), vehicle: Klucel (hydroxypropylcellulose) (HPC)) is 111 % of control.
On to `OC(C1CO1)C(O)C1CO1` (stereo not drawn), for which the T/C was 110 % of control (dose: 0.5 mg/kg/injection, schedule: Q04DX003 (ip), vehicle: saline); 109 % of control (dose: 1.0 mg/kg/injection, schedule: Q04DX003 (ip), vehicle: saline); 165 % of control (dose: 7.6 mg/kg/injection, schedule: Q07DX003 (iv), vehicle: saline); 338 % of control under setting [5]; 193 % of control (dose: 12.0 mg/kg/injection, schedule: Q07DX003 (iv), vehicle: saline).
For `CC[C@](O)(C(=O)O)c1cc2n(c(=O)c1CO)Cc1cc3ccccc3nc1-2`, the T/C runs as follows: (dose: 6.25 mg/kg/injection, schedule: Q04DX003 (ip), vehicle: saline) 114 % of control; (dose: 12.5 mg/kg/injection, schedule: Q04DX003 (ip), vehicle: saline) 111 % of control; under setting [6], 121 % of control.
Take `COc1cccc2c1C(=O)c1c(O)c3c(c(O)c1C2=O)CC(O)(C(=O)CO)CC3OC1CC(N)C(O)C(C)O1` (stereo not drawn): the T/C runs as follows: (dose: 1.13 mg/kg/injection, schedule: Q04DX003 (ip), vehicle: water) 107 % of control; (dose: 2.25 mg/kg/injection, schedule: Q04DX003 (ip), vehicle: water) 99 % of control and 113 % of control; (dose: 4.5 mg/kg/injection, schedule: Q04DX003 (ip), vehicle: water) 113 % of control; (dose: 9.0 mg/kg/injection, schedule: Q04DX003 (ip), vehicle: water) 116 % of control and 117 % of control; (dose: 18.0 mg/kg/injection, schedule: Q04DX003 (ip), vehicle: water) 117 % of control; (dose: 36.0 mg/kg/injection, schedule: Q04DX003 (ip), vehicle: water) 111 % of control. For the same molecule, the T/C is 107 % of control (dose: 55.0 mg/kg/injection, schedule: Q07DX002 (iv), vehicle: saline); 112 % of control (dose: 74.0 mg/kg/injection, schedule: Q07DX002 (iv), vehicle: saline); 124 % of control (dose: 190.0 mg/kg/injection, schedule: Q07DX002 (iv), vehicle: saline).
Regarding `C[C@@]1(CO)[C@@H](O)CC[C@@]2(C)[C@H]1CC[C@H]1C[C@@H]3CC12CC[C@]3(O)CO`, the T/C is, setting by setting: under setting [1], 103 % of control; (dose: 25.0 mg/kg/injection, schedule: Q04DX002 (ip), vehicle: distilled water + Tween-80) 109 % of control; under setting [2], 95 % of control; under setting [3], 109 % of control; under setting [4], 91 % of control; (dose: 400.0 mg/kg/injection, schedule: Q04DX002 (ip), vehicle: distilled water + Tween-80) 116 % of control.
In the case of `COc1cc([C@@H]2c3cc4c(cc3[C@@H](OC3OC5CO[C@@H](c6cccs6)OC5C(O)C3O)[C@H]3COC(=O)[C@H]23)OCO4)cc(OC)c1O` (stereo partly drawn), the T/C by setting is: (dose: 5.0 mg/kg/injection, schedule: Q03DX002 (ip), vehicle: other) 90 % of control; (dose: 10.0 mg/kg/injection, schedule: Q03DX002 (ip), vehicle: other) 92 % of control; (dose: 30.0 mg/kg/injection, schedule: Q03DX002 (ip), vehicle: other) 104 % of control.
As for `CC(=O)OCC(=O)[C@@]12OC(C)(C)O[C@@H]1C[C@H]1[C@@H]3CC(C=O)=C4C=C(OCCCl)CC[C@]4(C)[C@@]3(F)[C@@H](O)C[C@@]12C`, the T/C by setting is: (dose: 0.39 mg/kg/injection, schedule: Q04DX002 (ip), vehicle: Klucel (hydroxypropylcellulose) (HPC)) 94 % of control; (dose: 0.78 mg/kg/injection, schedule: Q04DX002 (ip), vehicle: Klucel (hydroxypropylcellulose) (HPC)) 89 % of control; (dose: 1.56 mg/kg/injection, schedule: Q04DX002 (ip), vehicle: Klucel (hydroxypropylcellulose) (HPC)) 93 % of control; (dose: 3.13 mg/kg/injection, schedule: Q04DX002 (ip), vehicle: Klucel (hydroxypropylcellulose) (HPC)) 95 % of control; (dose: 6.25 mg/kg/injection, schedule: Q04DX002 (ip), vehicle: Klucel (hydroxypropylcellulose) (HPC)) 91 % of control; (dose: 12.5 mg/kg/injection, schedule: Q04DX002 (ip), vehicle: Klucel (hydroxypropylcellulose) (HPC)) 88 % of control.
As for `NCCc1ccc(O)c(O)c1`, the T/C was 94 % of control under setting [6] and 109 % of control (dose: 50.0 mg/kg/injection, schedule: Q04DX003 (ip), vehicle: saline).
Regarding `CCCNCCNc1ccc(NCCNCCC)c2c1C(=O)c1ccccc1C2=O`, the T/C runs as follows: under setting [7], 106 % of control; under setting [8], 98 % of control; under setting [9], 100 % of control.
Consider `Cc1ncc(CNC(=O)N(CCCl)N=O)c(N)n1`, for which the T/C is 360 % of control (dose: 25.0 mg/kg/injection, schedule: Q04DX003 (oral), vehicle: saline); 340 % of control (dose: 40.0 mg/kg/injection, schedule: Q04DX003 (oral), vehicle: saline); 95 % of control (dose: 64.0 mg/kg/injection, schedule: Q04DX003 (oral), vehicle: saline).
For `CC(C)NCC(O)COc1cccc2ccccc12` (stereo not drawn), the T/C is, setting by setting: (dose: 4.0 mg/kg/injection, schedule: Q04DX003 (ip), vehicle: Klucel (hydroxypropylcellulose) (HPC)) 109 % of control; (dose: 8.0 mg/kg/injection, schedule: Q04DX003 (ip), vehicle: Klucel (hydroxypropylcellulose) (HPC)) 102 % of control; (dose: 16.0 mg/kg/injection, schedule: Q04DX003 (ip), vehicle: Klucel (hydroxypropylcellulose) (HPC)) 107 % of control; (dose: 32.0 mg/kg/injection, schedule: Q04DX003 (ip), vehicle: Klucel (hydroxypropylcellulose) (HPC)) 101 % of control; (dose: 64.0 mg/kg/injection, schedule: Q04DX003 (ip), vehicle: Klucel (hydroxypropylcellulose) (HPC)) 107 % of control.
Consider `CCC1(O)CC2CN(CCc3c([nH]c4ccccc34)C(C(=O)OC)(c3cc4c(cc3OC)N(C)C3C(O)(C(=O)NCCSSCCNC(=O)C5(O)C(O)C6(CC)C=CCN7CCC8(c9cc(C%10(C(=O)OC)CC%11CN(CCc%12c%10[nH]c%10ccccc%12%10)CC(O)(CC)C%11)c(OC)cc9N(C)C58)C76)C(O)C5(CC)C=CCN6CCC43C65)C2)C1` (stereo not drawn), for which the T/C reads like this: (dose: 540.0 micrograms/kg/injection, schedule: Q04DX003 (ip), vehicle: saline) 114 % of control; (dose: 900.0 micrograms/kg/injection, schedule: Q04DX003 (ip), vehicle: saline) 114 % of control; (dose: 1500.0 micrograms/kg/injection, schedule: Q04DX003 (ip), vehicle: saline) 96 % of control.
`O=C1c2ccccc2C(=O)c2c(NCCN3CCNCC3)ccc(NCCN3CCNCC3)c21`: the T/C is 106 % of control under setting [7], 114 % of control under setting [8] and 114 % of control under setting [9].

These data come from PubChem BioAssay AID210 (DTP/NCI, 2004).
